# Results as given in ChEMBL document CHEMBL1201862, “PubChem BioAssay data set” (2004).
# Calls of active or inactive are those of the source.
# What was measured:
# [1] = target: T1, Corticotropin-releasing factor receptor 2/Corticotropin-releasing factor-binding protein (Homo sapiens, UniProt P24387+Q13324); experiment: activators of CRF receptor 2 with binding protein – uHTS hits, confirmation (AID 602473); format: functional; settings: read-out: EC50_Mean
# T1 sequence (Q13324 whole entry): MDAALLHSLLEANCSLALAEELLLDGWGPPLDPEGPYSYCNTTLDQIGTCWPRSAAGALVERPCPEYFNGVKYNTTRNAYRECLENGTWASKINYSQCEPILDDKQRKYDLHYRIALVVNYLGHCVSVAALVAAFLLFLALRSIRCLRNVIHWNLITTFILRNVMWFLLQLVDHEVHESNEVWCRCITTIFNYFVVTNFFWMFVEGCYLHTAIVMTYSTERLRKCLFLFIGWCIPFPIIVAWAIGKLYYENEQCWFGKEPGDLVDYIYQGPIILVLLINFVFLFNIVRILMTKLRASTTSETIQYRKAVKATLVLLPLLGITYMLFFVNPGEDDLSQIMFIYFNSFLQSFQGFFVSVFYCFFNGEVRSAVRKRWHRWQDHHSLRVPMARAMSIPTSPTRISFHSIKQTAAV
# T1 sequence (P24387 whole entry): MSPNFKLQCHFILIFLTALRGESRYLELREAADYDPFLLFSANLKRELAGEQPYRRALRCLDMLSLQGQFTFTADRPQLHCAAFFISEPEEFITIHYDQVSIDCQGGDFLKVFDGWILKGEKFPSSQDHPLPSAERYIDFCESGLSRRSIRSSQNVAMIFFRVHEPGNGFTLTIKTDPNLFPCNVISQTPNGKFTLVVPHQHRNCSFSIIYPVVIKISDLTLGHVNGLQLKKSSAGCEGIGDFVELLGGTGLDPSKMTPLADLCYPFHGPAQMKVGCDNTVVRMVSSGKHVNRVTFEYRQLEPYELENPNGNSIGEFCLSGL
# [2] = target: T1, Corticotropin-releasing factor receptor 2/Corticotropin-releasing factor-binding protein; experiment: Dose Response confirmation of uHTS hits for small molecule antagonists of the CRF-binding protein and CRF-R2 receptor complex.; format: functional; settings: read-out: IC50_Mean
# [3] = test system: Streptococcus sp. 'group A'; experiment: growth inhibition of control SK(-) GAS strain, dose response, counter-screen for streptokinase expression inhibitor project, luminescence, kanamycin, BacTiterGlo, confirmation (AID 1900); format: functional, organism-based
# Streptococcus = experiment: Group A Streptococcus viability loss, dose response, counter-screen for streptokinase expression inhibitor project, luminescence, BacTiterGlo (AID 1915); format: functional, organism-based;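 further: potency for reduction of bacterial viability or growth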
# Streptokinase A = target: T2, Streptokinase A (Streptococcus pyogenes serotype M1, UniProt P10520); experiment: S. pyogenes streptokinase expression inhibitors, potency, dose response, plasminogen activation absorbance, OD405 (AID 1914); format: functional, Streptococcus pyogenes M1 GAS;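 further: secreted streptokinase activity via plasminogen activation per viability signal from cell pellet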
# T2 sequence (P10520 whole entry): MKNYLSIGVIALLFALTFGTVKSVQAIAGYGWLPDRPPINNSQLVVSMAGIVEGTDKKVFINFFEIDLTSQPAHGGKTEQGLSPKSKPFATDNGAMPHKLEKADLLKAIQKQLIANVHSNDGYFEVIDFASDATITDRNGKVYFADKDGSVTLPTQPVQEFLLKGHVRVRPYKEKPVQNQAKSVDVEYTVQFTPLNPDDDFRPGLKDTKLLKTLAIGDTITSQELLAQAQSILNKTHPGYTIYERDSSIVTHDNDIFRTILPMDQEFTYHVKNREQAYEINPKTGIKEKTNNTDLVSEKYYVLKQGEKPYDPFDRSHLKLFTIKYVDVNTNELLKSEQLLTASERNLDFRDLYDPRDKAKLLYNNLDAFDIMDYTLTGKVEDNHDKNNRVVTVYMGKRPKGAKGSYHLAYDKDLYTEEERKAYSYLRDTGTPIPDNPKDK
# [4] = target: FAD-linked sulfhydryl oxidase ALR (Homo sapiens, UniProt P55789); experiment: inhibitors of human ALR sulfhydryl oxidase, dose response, biochemical, H2O2 detection, luminescence, cherry-pick (AID 493248)
# FAD-linked sulfhydryl oxidase ALR, sequence (P55789 whole entry): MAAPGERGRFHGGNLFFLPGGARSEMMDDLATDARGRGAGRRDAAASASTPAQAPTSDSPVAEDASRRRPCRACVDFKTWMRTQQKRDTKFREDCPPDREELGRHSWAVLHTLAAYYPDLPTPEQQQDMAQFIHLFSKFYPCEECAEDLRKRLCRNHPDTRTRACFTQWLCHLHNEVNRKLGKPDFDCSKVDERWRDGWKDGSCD
# Cytochrome P450 2C9 = Cytochrome P450 2C9 (Homo sapiens, UniProt P11712)
# Cytochrome P450 2C9, sequence (P11712 whole entry): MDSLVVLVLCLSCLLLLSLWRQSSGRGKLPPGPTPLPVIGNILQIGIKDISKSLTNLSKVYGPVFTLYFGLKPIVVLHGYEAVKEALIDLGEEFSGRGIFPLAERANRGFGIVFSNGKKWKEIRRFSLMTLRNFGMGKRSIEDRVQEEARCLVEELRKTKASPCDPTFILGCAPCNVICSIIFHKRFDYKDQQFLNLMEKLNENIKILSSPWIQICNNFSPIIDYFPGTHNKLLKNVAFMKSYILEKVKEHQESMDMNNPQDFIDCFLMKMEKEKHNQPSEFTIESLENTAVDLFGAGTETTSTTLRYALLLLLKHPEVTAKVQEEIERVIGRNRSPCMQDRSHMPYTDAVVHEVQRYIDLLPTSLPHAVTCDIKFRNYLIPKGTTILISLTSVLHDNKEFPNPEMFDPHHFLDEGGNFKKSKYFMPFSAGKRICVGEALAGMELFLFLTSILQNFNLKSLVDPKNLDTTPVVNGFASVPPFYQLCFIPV
# Cytochrome P450 2D6 = Cytochrome P450 2D6 (Homo sapiens, UniProt P10635);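 further: CYP2D6 member of a cytochrome P450 panel assay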
# Cytochrome P450 2D6, sequence (P10635 whole entry): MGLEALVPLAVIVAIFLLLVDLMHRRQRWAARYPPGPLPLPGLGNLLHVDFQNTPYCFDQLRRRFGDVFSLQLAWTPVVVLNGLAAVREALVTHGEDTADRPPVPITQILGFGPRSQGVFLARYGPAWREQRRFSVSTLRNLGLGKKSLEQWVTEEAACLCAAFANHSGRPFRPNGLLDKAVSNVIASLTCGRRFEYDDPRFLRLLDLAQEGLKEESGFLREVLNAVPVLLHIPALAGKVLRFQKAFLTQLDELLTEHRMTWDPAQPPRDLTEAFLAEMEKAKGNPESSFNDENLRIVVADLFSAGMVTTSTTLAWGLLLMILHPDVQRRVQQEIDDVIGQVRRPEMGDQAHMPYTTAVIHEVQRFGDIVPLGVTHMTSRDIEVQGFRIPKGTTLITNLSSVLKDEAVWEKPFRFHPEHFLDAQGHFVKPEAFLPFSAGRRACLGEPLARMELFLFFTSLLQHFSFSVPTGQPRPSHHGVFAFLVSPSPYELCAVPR
# Cytochrome P450 3A4 = Cytochrome P450 3A4 (Homo sapiens, UniProt P08684);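 further: CYP3A4 tested as one member of a cytochrome P450 panel screen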
# Cytochrome P450 3A4, sequence (P08684 whole entry): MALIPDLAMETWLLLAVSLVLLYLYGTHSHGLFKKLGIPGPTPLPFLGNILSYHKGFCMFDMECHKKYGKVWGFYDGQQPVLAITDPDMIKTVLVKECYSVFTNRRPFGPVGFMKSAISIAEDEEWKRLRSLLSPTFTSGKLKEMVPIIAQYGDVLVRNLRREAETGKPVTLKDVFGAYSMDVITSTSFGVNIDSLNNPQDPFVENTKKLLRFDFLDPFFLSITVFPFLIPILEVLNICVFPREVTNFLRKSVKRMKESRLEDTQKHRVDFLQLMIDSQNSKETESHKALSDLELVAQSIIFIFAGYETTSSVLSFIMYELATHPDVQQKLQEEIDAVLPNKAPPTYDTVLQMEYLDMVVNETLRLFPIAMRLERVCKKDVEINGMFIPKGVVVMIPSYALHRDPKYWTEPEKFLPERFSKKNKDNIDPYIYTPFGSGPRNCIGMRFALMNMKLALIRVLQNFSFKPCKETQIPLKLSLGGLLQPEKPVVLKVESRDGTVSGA
# Cytochrome P450 2C19 = Cytochrome P450 2C19 (Homo sapiens, UniProt P33261); experiment: Cytochrome panel assay with activity outcomes. Panel member name: p450-cyp2c19 Compounds with AC50 equal or less than 10 uM are considered active; format: functional
# Cytochrome P450 2C19, sequence (P33261 whole entry): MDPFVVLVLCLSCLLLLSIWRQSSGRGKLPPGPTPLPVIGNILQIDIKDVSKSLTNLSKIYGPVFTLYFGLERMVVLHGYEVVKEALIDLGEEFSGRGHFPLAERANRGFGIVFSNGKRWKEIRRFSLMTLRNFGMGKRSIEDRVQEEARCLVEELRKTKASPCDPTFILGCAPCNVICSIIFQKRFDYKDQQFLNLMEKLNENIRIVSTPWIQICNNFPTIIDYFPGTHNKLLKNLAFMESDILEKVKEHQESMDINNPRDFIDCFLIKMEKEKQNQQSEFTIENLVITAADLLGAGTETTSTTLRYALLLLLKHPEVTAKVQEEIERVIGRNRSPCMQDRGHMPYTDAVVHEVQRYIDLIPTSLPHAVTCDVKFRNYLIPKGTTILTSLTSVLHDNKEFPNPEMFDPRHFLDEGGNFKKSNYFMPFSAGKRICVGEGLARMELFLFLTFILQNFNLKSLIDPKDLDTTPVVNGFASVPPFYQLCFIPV
compound,measurement,setting,value
Cc1ccc(C)c(NC(=O)Cn2cnc3c(oc4ccccc43)c2=O)c1,EC50,[1],> 53 µM (inactive)
same,IC50,[2],> 47.1 µM (inactive)
CCOC(=O)C1=C(N)Oc2ccc3ccccc3c2C1c1ccc(O)cc1 (stereo unspecified),EC50,[3],8.94 µM (active)
same,EC50,Streptococcus,> 150 µM (not active)
same,EC50,Streptokinase A,11.5 µM (active)
CN1c2ccc([N+](=O)[O-])cc2C(C)(C)C12C=Cc1cc(C(=O)O)ccc1O2 (stereo unspecified),AC50,[4],1.47 µM (active)
N#Cc1cccc(-c2ccc3ncnc(NCc4cccs4)c3c2)c1,AC50,Cytochrome P450 2C9,0.501 µM (inconclusive)
same,AC50,Cytochrome P450 2D6,12.6 µM (inconclusive)
C[N+](C)(C)CCC(=O)c1cccc2ccccc12,AC50,Cytochrome P450 2C9,12.6 µM (inconclusive)
same,AC50,Cytochrome P450 3A4,0.2 µM (inconclusive)
same,AC50,Cytochrome P450 2D6,10 µM (inconclusive)
COc1ccccc1CNC(=O)C1CC(=O)N(C2CCCC2)C1 (stereo unspecified),AC50,Cytochrome P450 2C9,0.0224 µM (inconclusive)
same,AC50,Cytochrome P450 2C19; read-out: AC50,28.2 µM (inconclusive)
same,AC50,Cytochrome P450 3A4,22.4 µM (inconclusive)
CC(NC(=O)CCCCCNC(=O)N1CCn2c1nc1ccccc12)c1ccccc1 (stereo unspecified),AC50,[4],4.51 µM (active)
Cc1nn(CC(O)CN2c3ccccc3Sc3ccccc32)c(C)c1Br (stereo unspecified),EC50,[3],3.47 µM (active)
same,EC50,Streptococcus,21.4 µM (active)
same,EC50,Streptokinase A,8 µM (active)
Cc1nnc(O)c2c(NC(=O)CSc3nnnn3-c3ccccc3)oc(C)c12,EC50,[3],> 150 µM (not active)
same,EC50,Streptococcus,> 150 µM (not active)
same,EC50,Streptokinase A,> 150 µM (not active)
COc1ccccc1-n1cnnc1SCC(=O)NCc1cccs1,EC50,[1],> 53 µM (inactive)
same,IC50,[2],> 47.1 µM (inactive)
Cc1ccc(CNC(=O)c2cc(-c3ccccc3C)n(CC3CC(c4cccc([N+](=O)[O-])c4)=NO3)n2)cc1 (stereo unspecified),EC50,[1],> 53 µM (inactive)
same,IC50,[2],> 47.1 µM (inactive)
CC(C)C(=O)Nc1ccc(C(=O)NNC(=O)C(c2ccccc2)c2ccccc2)cc1,AC50,Cytochrome P450 2C9,5.01 µM (inconclusive)
same,AC50,Cytochrome P450 3A4,4.47 µM (inconclusive)
Cc1cccc(OCc2nnc(S)n2-c2ccccc2)c1,AC50,[4],1.6 µM (active)
CCC1C(=O)N=C(SCC(=O)Nc2ccc(C(=O)OC)cc2)NC1=O (stereo unspecified),AC50,Cytochrome P450 2C9,31.6 µM (inconclusive)
Cc1ccc(Nc2nc(CSc3n[nH]c(N)n3)cs2)cc1,AC50,[4],< 0.005 µM (active)
CSc1nc2n(n1)C(c1cccc(F)c1)C(C(=O)Nc1ccc(C)cc1C)=C(C)N2 (stereo unspecified),AC50,Cytochrome P450 2C9,3.98 µM (inconclusive)
same,AC50,Cytochrome P450 3A4,0.708 µM (inconclusive)
CC(C)CN(C(=O)COc1ccc(-c2nnco2)cc1)C1CCS(=O)(=O)C1 (stereo unspecified),EC50,[3],> 150 µM (not active)
same,EC50,Streptococcus,> 150 µM (not active)
same,EC50,Streptokinase A,> 150 µM (not active)
COC(=O)c1cnn(C(=O)c2ccccc2Br)c1N,AC50,Cytochrome P450 2C9,22.4 µM (inconclusive)
CC(C)(C)NC(=O)C(=O)NNC(=O)c1ccccc1,AC50,Cytochrome P450 2C9,1.78 µM (inconclusive)
same,AC50,Cytochrome P450 2C19,inconclusive
Cc1cccc(C)c1OCC(=O)Nc1ccccc1N1CCCCC1,EC50,[3],3.36 µM (active)
same,EC50,Streptococcus,12.5 µM (active)
same,EC50,Streptokinase A,4.15 µM (active)
CCCCC(NC(=O)CCc1c(C)c2cc3c4c(oc3c(C)c2oc1=O)CCCC4)C(=O)O (stereo unspecified),AC50,[4],7.78 µM (active)
CCOc1cc(CNc2ccc(OC)cc2)cc(Br)c1OCC(=O)NC(C)(C)C,AC50,Cytochrome P450 2C9,7.08 µM (inconclusive)
Cc1ccccc1NC(=O)C(=O)NC(C)CCc1ccccc1 (stereo unspecified),EC50,[3],> 150 µM (not active)
same,EC50,Streptococcus,> 150 µM (not active)
same,EC50,Streptokinase A,> 150 µM (not active)
